Results from PMC7356970, “A Population Pharmacokinetic and Pharmacodynamic Model of CKD-519” (Pharmaceutics, 2020).
≈ marks a conversion by molar mass, not a printed value.

What was measured:
Plasma CETP activity = target: T1, Plasma CETP activity (Homo sapiens, UniProt P11597); experiment: population CETP model (turnover model), plasma CETP activity by fluorescent assay; assay type: in vivo
T1 construct: from tissue; host or cells: plasma of healthy subjects (sodium heparin tubes)
T1 sequence (P11597 18-493): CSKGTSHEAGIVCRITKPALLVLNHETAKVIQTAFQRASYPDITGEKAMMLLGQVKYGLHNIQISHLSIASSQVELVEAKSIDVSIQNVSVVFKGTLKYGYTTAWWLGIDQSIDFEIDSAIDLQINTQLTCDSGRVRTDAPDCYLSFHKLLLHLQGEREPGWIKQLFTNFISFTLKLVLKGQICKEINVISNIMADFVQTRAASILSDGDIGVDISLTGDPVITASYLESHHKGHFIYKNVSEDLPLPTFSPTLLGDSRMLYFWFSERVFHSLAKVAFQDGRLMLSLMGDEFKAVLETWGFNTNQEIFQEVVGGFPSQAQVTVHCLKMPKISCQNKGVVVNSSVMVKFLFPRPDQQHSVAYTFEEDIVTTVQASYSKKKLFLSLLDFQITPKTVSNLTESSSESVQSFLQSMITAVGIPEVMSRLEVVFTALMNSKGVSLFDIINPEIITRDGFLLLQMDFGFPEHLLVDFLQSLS
Description: (§1) Blood samples for PK or PD were collected on days 1 (0, 1, 2, 3, 4, 5, 6, 7, 8, 10, 12, 18, and 24 h) and 14 (0, 1, 2, 3, 4, 5, 6, 7, 8, 10, 12, 18, 24, 32, 48, 72, 96, 120, 144, and 168 h), along with daily sampling on days 2 through 13 to determine trough levels of drug concentration, CETP activity, and lipid values. Each blood sample for PK and CETP activity was collected in sodium heparin tubes and then centrifuged at 1900 g for 10 min. Their aliquots were stored at or below […] until analysis. The plasma concentrations of CKD-519 were measured using a validated high-performance liquid chromatography-tandem mass spectrometry assay. A 100 μL plasma sample was mixed with 10 μL internal standard working solution and 300 μL acetonitrile. After centrifugation, 3 μL supernatant was injected into the column. The lower limit of quantification was 1.0 ng/mL. The calibration curve was linear over the concentration range of 1.0–2000 ng/mL. The precision of the assay was less than 2.7% coefficient of variation, and the accuracy of the assay was within the range of 93.7–113.0% [5]. Plasma CETP activity was measured by using a fluorescent assay method previously described. HDL-C and LDL-C were measured with an ADIVA 1650 Clinical Chemistry System (Siemens Medical Solutions, Tarrytown, NY, USA).
Since CETP inhibition is closely related to HDL-C increase and LDL-C decrease, the CETP model was included as a link between the PK model of CKD-519 and cholesterol (HDL-C and LDL-C) models. For the CETP model, CETP activity was used as a dependent variable as this was the primary parameter of interest.
The turnover model was used to describe the relationship between CETP activity and plasma concentration of CKD-519. The effect of CKD-519 was applied in the model as stimulating the elimination of CETP activity. Because the CETP activity increased over time in the placebo group, the response of placebo treatment was incorporated into the CETP model. The effects of CKD-519 and placebo treatment were evaluated as linear, Emax, or sigmoid Emax relationships. […]

[1] = food effect on PK, single 200 mg, standard meal vs fasted; assay type: in vivo, human; settings: single 200 mg with a standard meal; in house data
Description: (§2) The exposure of CKD-519 increased with the dose. However, maximum plasma concentration (Cmax) and area under the plasma concentration-time curve (AUC) normalized by dose decreased with each incremental dose.

LDL-C = experiment: population LDL-C model (turnover, sigmoid Emax); assay type: in vivo, human
Description: as §1
(§3) For each of the HDL-C and LDL-C model development, their clinical laboratory results were used. Their responses by changing CETP activity were described using turnover models. Taking into account the physiological mechanism of CETP on lipid metabolism, the CETP effect was incorporated into the model as a stimulatory function of HDL-C elimination and an inhibitory function of LDL-C elimination. The effect of CETP activity on HDL-C or LDL-C was evaluated using linear, Emax, or sigmoid Emax models.
(§4) HDL-C and LDL-C models were best described with the sigmoid Emax function. The LDL-C in the placebo group tended to increase gradually over time. Thus, a linear model was used to describe the placebo effect on LDL-C after comparison with Emax and sigmoid Emax models. The changes in HDL-C and LDL-C concentration were described as follows:(7) dHDL/dt=Ksyn−Kdeg×AHDL×(1+RESCETP) (8) dLDL/dt=Ksy×(1+PLA)−Kdeg×ALDL×(1−RESCETP) (9) RESCETP=CETPactivityγ×Rmax/CETPactivityγ+R50γ (10) PLA=β×time where Ksyn and Ksy are the zero-order production rate constant, Kdeg is the first-order elimination rate constant, RESCETP is the change in CETP activity, Rmax is the maximal effect of CETP activity on HDL-C and LDL-C response, R50 is the CETP activity required to attain 50% maximal response of HDL-C and LDL-C, PLA is the placebo effect, and β is the proportionality constant.

HDL-C = experiment: population HDL-C model (turnover, sigmoid Emax); assay type: in vivo, human
Description: as §1, §3, §4

[2] = set-up: method as in PMID 30107219, PMID 27895466; settings: at pH 7.4; cited from earlier work
CETP activity [3] = target: T2, CETP activity (Homo sapiens, UniProt P11597); set-up: method as in PMID 27895466; settings: healthy subjects, cited from earlier work
T2 construct: Plasma CETP activity was measured by using a fluorescent assay method previously described; from tissue; host or cells: plasma of healthy subjects (sodium heparin tubes)
T2 sequence (P11597 18-493): T1 sequence (P11597 18-493)

[4] = cited from earlier work
[5] = multiple-dose study in healthy male subjects, plasma PK and population PK model; assay type: in vivo, human; settings: for CL/F: observed
Description: A randomized, double-blinded, placebo-controlled, multiple-dose, and dose-escalation study was conducted in a total of 32 healthy male subjects aged 19–55 years in four cohorts (50, 100, 200, and 400 mg). Six subjects were assigned to CKD-519, and two to matching placebo in each cohort. Dose escalation to the next cohort was done after the safety profile was reviewed. CKD-519 was available as two dosage forms of 50 and 100 mg tablets.
Enrolled subjects were admitted on day −1. CKD-519 or placebo was administered to randomly assigned subjects for 14 days with a standard breakfast meal (700–800 kcal, containing 5–25% fat content). All subjects were hospitalized until completion of blood sampling for PK and PD (from day −1 to day 21). All meals were nutritionally equivalent and provided at the same time scheduled throughout the study period. The participants were not permitted to take any drugs or herbal medications and also were restricted from consuming any other snacks or beverages during the study.
as §1
PK and PD models were developed using NONMEM version 7.3 (Icon Development Solutions, Ellicott City, MD, USA) using a first-order conditional estimation with interaction method (FOCE-INTER). R (version 3.6.1, R Foundation for Statistical Computing, Vienna, Austria) was used for data preparation, graphical analysis, and model diagnostics. The population PK-PD model was developed sequentially. The PK model was initially developed, and then the CETP model (PK-PD) was developed using individual PK parameters estimated from the final PK model. Finally, the cholesterol (HDL-C or LDL-C) models were developed using the individual CETP parameters estimated from the final CETP model.
Inter-individual variability (IIV) for each parameter in all models was assumed to follow a Gaussian distribution with a mean of 0 and variance of ω^2. For the PK model, once the IIV term was selected, the covariance between the terms was assessed using an omega block on selected parameters. As for the residual error, additive, proportional, and combined models were tested. The model was selected after a comparison of several criteria such as a decrease in the objective function value (OFV), completion of the estimation and covariance routines, the precision of the parameter and error estimates, and visual exploration of the diagnostic plots.
Several disposition models were assessed, including 1-, 2-, and 3- compartment structural models. Absorption was evaluated with first-order, zero-order (with and without lag time), Weibull-type, and Erlang’s model. The bioavailability was assessed about the effects of the dose and time. […]

CETP activity [6] = target: T2, CETP activity; experiment: food effect on inhibition of CETP activity, single 200 mg; assay type: in vivo
Description: as §2

serum CETP concentration = serum CETP concentration during multiple dosing; assay type: in vivo, human; settings: time-dependent, in house data
Description: As reported earlier in other CETP inhibitors, the administration of CKD-519 in this study led to an approximately 2.5 fold increase in serum CETP concentration in a time-dependent manner (in house data). In the placebo group, serum CETP concentration increased by about 30% after two weeks (in house data). It has been reported that transcription of the CETP gene is under the control of extrinsic and intrinsic factors. Dietary cholesterol up-regulates CETP expression in human CETP-transgenic mice, and plasma cholesterol levels also correlate with CETP mass in humans. The increase in CETP activity in the placebo group might be due to increased serum CETP mass because dietary cholesterol regularly served during hospitalization for three weeks could have promoted CETP expression. […] Linear, Emax, and sigmoid Emax models were tested to explain CETP activity increase in the placebo group, and the Emax model by time best described the placebo effect.

[7] = final population PK model estimate

With `COc1cc(F)c(C(C)C)cc1C1=C(CN2C(=O)O[C@H](c3cc(C(F)(F)F)cc(C(F)(F)F)c3)[C@@H]2C)CC(C)(C)CC1` [CKD-519] the “EC50, plasma drug concentration of half-maximal effect on CETP activity” value (Plasma CETP activity; CETP model estimate) was 0.587 µg/mL, the “Emax, maximal effect of plasma drug concentration on CETP activity” value (Plasma CETP activity; CETP model estimate, stimulation of Kout) was 18.2 and the “ωEmax, interindividual variability on Emax” value (Plasma CETP activity; CV%) was 39.5%. For the same compound, the “increase in AUC relative to the fasted state” value [1] was 5.8 fold, the “increase in Cmax relative to the fasted state” value [1] was 8.7 fold and the “ωGAM, interindividual variability on γ” value (LDL-C; CV%, LDL-C model) was 50.9%. The “R50, CETP activity of half-maximal effect on LDL-C response” value (LDL-C; LDL-C model estimate) was 80.7 pmol, the “Rmax, maximal effect of CETP activity on LDL-C response” value (LDL-C; LDL-C model estimate) was 0.8 and the “γ, steepness of the CETP activity versus LDL-C relationship” value (LDL-C; LDL-C model estimate) was 2.2. The “maximal decrease in LDL-C” value (LDL-C; estimated) was 47–66%, the “R50, CETP activity of half-maximal effect on HDL-C response” value (HDL-C; HDL-C model estimate) was 185.0 pmol and the “Rmax, maximal effect of CETP activity on HDL-C response” value (HDL-C; HDL-C model estimate) was 1.5. The “γ, steepness of the CETP activity versus HDL-C relationship” value (HDL-C; HDL-C model estimate) was 2.1, the “maximal increase in HDL-C” value (HDL-C; estimated) was 160–190% and the LogP [2] was greater than 5.0. For the same compound, the “maximum inhibitory effect of CETP activity” value (CETP activity [3]; single administration 25–400 mg) was 63–83%, the “EC50 (CETP activity)” value (CETP activity [3]; single administration) was 0.0173 µg/mL (≈ 0.0288 µM) and the aqueous solubility [4] was “less than 1.0 μg/mL”. For the same compound, the “solubility in deionized water” value ([4]; in vitro solubility test) was “insoluble”, the “solubility in ethyl alcohol” value ([4]; in vitro solubility test) was “freely soluble” and the “increase of CL/F from 50 mg to 200 mg” value ([5]; 50 mg vs 200 mg) was “approximately 2.5 fold”. For the same compound, the “increase of AUC after multiple administration compared to the first dose” value ([5]; 400 mg group) was “three-fold increase”, the “α1, proportionality constant for fraction of first-order absorption process depending on time” value ([5]; 50, 100 and 200 mg dose groups) was 0.002 and the “ωBmax, interindividual variability on BMAX” value ([5]; CV%) was 28.2%. For the same compound, the “ωCL/F, interindividual variability on CL/F” value ([5]; CV%) was 15.6%, the “ωKtr, interindividual variability on Ktr” value ([5]; CV%) was 14.1% and the “ωV3/F, interindividual variability on V3/F” value ([5]; CV%) was 58.1%. The Tmax ([5]; all dose groups) was “approximately 1 h”, the “Ka, absorption rate constant” value [5, 7] was 1.09 h⁻¹ and the “V2/F, volume of peripheral compartment 1” value [5, 7] was 45.4 L. For the same compound, the “V3/F, volume of peripheral compartment 2” value [5, 7] was 1006.0 L, the “V/F, volume of central compartment” value [5, 7] was 11.4 L and the “CL/F, clearance” value ([5]; final population PK model estimate, 50–400 mg daily for 14 days with standard meal) was 6.4 L/h. For the same compound, the “Ktr, transit rate constant” value ([5]; final population PK model estimate, Erlang's absorption, five transit compartments) was 1.10 h⁻¹, the CL/F ([5]; 50 mg) was 11.98 L/h and the CL/F ([5]; 200 mg) was 30.04 L/h. The CL/F ([5]; 400 mg) was 23.98 L/h, the half-life ([5]; terminal, across dose groups) was 145.4 to 166.2 h and the “inhibitory effect of CETP activity” value (CETP activity [6]; fasted group) was 81.5%. For the same compound, the “inhibitory effect of CETP activity” value (CETP activity [6]; fed group) was 91.4% and the “increase in serum CETP concentration” value (serum CETP concentration) was “approximately 2.5 fold”.
